Tests used:
[1] = target: T1, CGRP receptor (Homo sapiens, UniProt O60894+Q16602); experiment: CGRP radioligand binding assay ([125I]-CGRP displacement, SK-N-MC homogenate); parameters: endogenous in cells; host or cells: SK-N-MC cells (homogenate/membrane pellet); details: displacement of [125I]-CGRP, room temperature 2 h
Summary of the method: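 SK-N-MC cell homogenate (5 μg/well) was incubated 2 h at room temperature with [125I]-CGRP (diluted to 60 pM before addition) in 50 mM Tris-Cl pH 7.5, 5 mM MgCl2, 0.005% Triton X-100 plus protease inhibitors. Bound radioactivity was collected by filtration; 1 μM beta-CGRP defined non-specific binding. IC50 is 50% radioligand displacement.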

[2] = target: T1, CGRP receptor; experiment: Cyclic AMP functional antagonism assay in SK-N-MC cells; assay type: cell-based; parameters: SK—N-MC cells that endogenously express the human CGRP receptor; endogenous in cells; host or cells: SK-N-MC cells; details: inhibition of 0.3 nM CGRP-induced cyclic AMP formation, 15 min pre-incubation, read-out: cAMP Function IC50
Procedure: Cyclic AMP Functional Antagonism Assay. Antagonism of the compounds of invention was determined by measuring the formation of cyclic AMP (adenosine 3′5′-cyclic monophosphate) in SK—N-MC cells that endogenously express the human CGRP receptor. CGRP receptor complex is coupled with Gs protein and CGRP binding to this complex leads to the cyclic AMP production via Gs—dependent activation of an adenylate cyclase (Juaneda C et al., TiPS, 2000; 21:432-438; incorporated by reference herein). Consequently, CGRP receptor antagonists inhibit CGRP—induced cyclic AMP formation in SK—N-MC cells (Doods H et al., Br J Pharmacol, 2000; 129(3):420-423); incorporated by reference herein). For cyclic AMP measurements SK—N-MC cells were incubated with 0.3 nM CGRP alone or in the presence of various concentrations of the compounds of invention for 30 min at room temperature. Compounds of invention were pre-incubated with SK—N-MC cells for 15 min before the addition of CGRP to allow receptor occupancy (Edvinsson et al., Eur J Pharmacol, 2001, 415:39-44; incorporated by reference herein). Cyclic AMP was extracted using the lysis reagent and its concentration was determined by radioimmunoassay using RPA559 cAMP SPA Direct Screening Assay Kit (Amersham Pharmacia Biotech). IC50 values were calculated using Excel fit.

T1 sequence (Q16602 23-461): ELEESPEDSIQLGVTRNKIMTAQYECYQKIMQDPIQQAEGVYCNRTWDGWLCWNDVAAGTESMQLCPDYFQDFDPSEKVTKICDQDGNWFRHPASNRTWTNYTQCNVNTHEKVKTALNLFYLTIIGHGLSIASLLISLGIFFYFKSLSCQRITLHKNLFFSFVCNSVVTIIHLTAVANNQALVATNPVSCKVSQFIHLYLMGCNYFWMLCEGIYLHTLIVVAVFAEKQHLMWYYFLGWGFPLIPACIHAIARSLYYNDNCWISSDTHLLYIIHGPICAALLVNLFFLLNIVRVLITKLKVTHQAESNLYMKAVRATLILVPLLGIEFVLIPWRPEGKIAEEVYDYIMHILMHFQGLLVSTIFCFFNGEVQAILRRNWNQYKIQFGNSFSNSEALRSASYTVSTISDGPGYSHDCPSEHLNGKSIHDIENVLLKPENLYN
T1 sequence (O60894 27-148): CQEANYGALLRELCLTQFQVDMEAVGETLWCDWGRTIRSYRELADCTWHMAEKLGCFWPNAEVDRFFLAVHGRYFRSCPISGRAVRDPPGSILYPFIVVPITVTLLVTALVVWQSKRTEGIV

Row | Structure (SMILES) | IC50 [1] [nM] | IC50 [2] [nM]
1 | O=C(N[C@@H]1Cc2cc(Cl)c3[nH]ncc3c2CN(Cc2ccccc2)C1=O)N1CCC(N2Cc3ccccc3NC2=O)CC1 [Example 12, 4-(2-Oxo-1,4-dihydro-2H-quinazolin-3-yl)-piperidine-1-carboxylic acid (9-benzyl-4-chloro-8-oxo-3,6,7,8,9,10-hexahydro-2,3,9-triaza-(R)-cyclohepta[e]inden-7-yl)-amide] | 0.1 to 10 | 0.1 to 10
2 | CC(C)(C)CCN1Cc2c(ccc3[nH]ncc23)C[C@@H](NC(=O)N2CCC(N3Cc4ccccc4NC3=O)CC2)C1=O [Example 16, 4-(2-Oxo-1,4-dihydro-2H-quinazolin-3-yl)-piperidine-1-carboxylic acid [9-(3,3-dimethyl-butyl)-8-oxo-3,6,7,8,9,10-hexahydro-2,3,9-triaza-(R)-cyclohepta[e]inden-7-yl]-amide] | 0.1 to 10 | 0.1 to 10
3 | CC(C)(C)CN1Cc2c(cc(Cl)c3[nH]ncc23)C[C@@H](NC(=O)N2CCC(N3Cc4ccccc4NC3=O)CC2)C1=O [Example 20, 4-(2-Oxo-1,4-dihydro-2H-quinazolin-3-yl)-piperidine-1-carboxylic acid [4-chloro-9-(2,2-dimethyl-propyl)-8-oxo-3,6,7,8,9,10-hexahydro-2,3,9-triaza-(R)-cyclohepta[e]inden-7-yl]-amide] | 0.1 to 10 | 0.1 to 10
4 | CC(C)(C)CN1Cc2c(cc(Cl)c3[nH]ncc23)C[C@@H](CC(=O)N2CCC(N3Cc4ccccc4NC3=O)CC2)C1=O [Example 21, 4-Chloro-9-(2,2-dimethyl-propyl)-7-(S)-{2-oxo-2-[4-(2-oxo-1,4-dihydro-2H-quinazolin-3-yl)-piperidin-1-yl]-ethyl}-6,7,9,10-tetrahydro-3H-2,3,9-triaza-cyclohepta[e]inden-8-one] | 0.1 to 10 | 0.1 to 10
5 | CC(C)(C)CN1Cc2c(ccc3[nH]ncc23)CC(NC(=O)N2CCC(N3Cc4ccccc4NC3=O)CC2)C1=O (stereo not shown) [Example 22, 4-(2-Oxo-1,4-dihydro-2H-quinazolin-3-yl)-piperidine-1-carboxylic acid [9-(2,2-dimethyl-propyl)-8-oxo-3,6,7,8,9,10-hexahydro-2,3,9-triaza-cyclohepta[e]inden-7-yl]-amide] | 0.1 to 10 | 0.1 to 10
6 | CC(C)CN1Cc2c(ccc3[nH]ncc23)CC(NC(=O)N2CCC(N3Cc4ccccc4NC3=O)CC2)C1=O (stereo not shown) [Example 24, 4-(2-Oxo-1,4-dihydro-2H-quinazolin-3-yl)-piperidine-1-carboxylic acid (9-isobutyl-8-oxo-3,6,7,8,9,10-hexahydro-2,3,9-triaza-cyclohepta[e]inden-7-yl)-amide] | 10 to 100 | 10 to 100
7 | O=C(NC1Cc2ccc3[nH]ncc3c2CN(Cc2ccncc2)C1=O)N1CCC(N2Cc3ccccc3NC2=O)CC1 (stereo not shown) [Example 28, 4-(2-Oxo-1,4-dihydro-2H-quinazolin-3-yl)-piperidine-1-carboxylic acid (8-oxo-9-pyridin-4-ylmethyl-3,6,7,8,9,10-hexahydro-2,3,9-triaza-cyclohepta[e]inden-7-yl)-amide] | 10 to 100 | 10 to 100
8 | Cc1cc2c(c3cn[nH]c13)CN(C)C(=O)C(NC(=O)N1CCC(N3Cc4ccccc4NC3=O)CC1)C2 (stereo not shown) [Example 30, 4-(2-Oxo-1,4-dihydro-2H-quinazolin-3-yl)-piperidine-1-carboxylic acid (4,9-dimethyl-8-oxo-3,6,7,8,9,10-hexahydro-2,3,9-triaza-cyclohepta[e]inden-7-yl)-amide] | 10 to 100 | 10 to 100
9 | O=C(N[C@@H]1Cc2cc3cn[nH]c3cc2CN(Cc2ccccc2)C1=O)N1CCC(N2Cc3ccccc3NC2=O)CC1 [Example 37, (R)-N-(8-Benzyl-7-oxo-1,5,6,7,8,9-hexahydroazepino[4,3-f]indazol-6-yl)-4-(2-oxo-1,2-dihydroquinazolin-3(4H)-yl)piperidine-1-carboxamide] | 0.1 to 10 | 10 to 100
10 | CC(C)(C)CN1Cc2c(ccc3[nH]ncc23)C[C@@H](CC(=O)N2CCC(N3Cc4cccc(F)c4NC3=O)CC2)C1=O [Example 39, (S)-7-(2-(4-(8-Fluoro-2-oxo-1,2-dihydroquinazolin-3(4H)-yl)piperidin-1-yl)-2-oxoethyl)-9-neopentyl-6,7,9,10-tetrahydroazepino[3,4-e]indazol-8(3H)-one] | 10 to 100 | 10 to 100
11 | CC(C)(C)CN1Cc2c(cc(Cl)c3[nH]ncc23)C[C@@H](CC(=O)N2CCC(N3Cc4cccc(F)c4NC3=O)CC2)C1=O [Example 40, (S)-4-Chloro-7-(2-(4-(8-fluoro-2-oxo-1,2-dihydroquinazolin-3(4H)-yl)piperidin-1-yl)-2-oxoethyl)-9-neopentyl-6,7,9,10-tetrahydroazepino[3,4-e]indazol-8(3H)-one] | 0.1 to 10 | 0.1 to 10
12 | CC(C)(C)CN1Cc2c(cc(Cl)c3[nH]ncc23)C[C@@H](CC(=O)N2CCC(N3Cc4ccccc4CC3=O)CC2)C1=O [Example 41, (S)-4-Chloro-9-neopentyl-7-(2-oxo-2-(4-(3-oxo-3,4-dihydroisoquinolin-2(1H)-yl)piperidin-1-yl)ethyl)-6,7,9,10-tetrahydroazepino[3,4-e]indazol-8(3H)-one] | 0.1 to 10 | 0.1 to 10
13 | CC(C)(C)CN1Cc2c(ccc3[nH]ncc23)C[C@@H](CC(=O)N2CCC(c3cc4ccccc4[nH]c3=O)CC2)C1=O [Example 42, (S)-9-Neopentyl-7-(2-oxo-2-(4-(2-oxo-1,2-dihydroquinolin-3-yl)piperidin-1-yl)ethyl)-6,7,9,10-tetrahydroazepino[3,4-e]indazol-8(3H)-one] | 10 to 100 | 10 to 100
14 | CC(C)(C)CN1Cc2c(cc(Cl)c3[nH]ncc23)C[C@@H](CC(=O)N2CCC(c3cc4ccccc4[nH]c3=O)CC2)C1=O [Example 43, (S)-4-Chloro-9-neopentyl-7-(2-oxo-2-(4-(2-oxo-1,2-dihydroquinolin-3-yl)piperidin-1-yl)ethyl)-6,7,9,10-tetrahydroazepino[3,4-e]indazol-8(3H)-one] | 0.1 to 10 | 0.1 to 10
15 | CC(C)(C)CN1Cc2c(cc(Cl)c3[nH]ncc23)C[C@@H](CC(=O)N2CCC(n3cc(-c4ccccc4)[nH]c3=O)CC2)C1=O [Example 44, (S)-4-Chloro-9-neopentyl-7-(2-oxo-2-(4-(2-oxo-4-phenyl-2,3-dihydroimidazol-1-yl)piperidin-1-yl)ethyl)-6,7,9,10-tetrahydroazepino[3,4-e]indazol-8(3H)-one] | 0.1 to 10 | 0.1 to 10
16 | CC(C)(C)CN1Cc2c(cc(Cl)c3[nH]ncc23)C[C@@H](CC(=O)N2CCC(n3cc(-c4ccccn4)[nH]c3=O)CC2)C1=O [Example 45, (S)-4-Chloro-9-neopentyl-7-(2-oxo-2-(4-(2-oxo-4-(pyridin-2-yl)-2,3-dihydroimidazol-1-yl)piperidin-1-yl)ethyl)-6,7,9,10-tetrahydroazepino[3,4-e]indazol-8(3H)-one] | 0.1 to 10 | 0.1 to 10
17 | CC(C)(C)CN1Cc2c(cc(Cl)c3[nH]ncc23)C[C@@H](CC(=O)N2CCC3(CC2)NC(=O)Nc2ccccc23)C1=O [Example 46] | 0.1 to 10 | 0.1 to 10
18 | CC(C)(C)CN1Cc2c(cc(Cl)c3[nH]ncc23)C[C@@H](CC(=O)N2CCC(c3cc4cccc(F)c4[nH]c3=O)CC2)C1=O [Example 47, (S)-4-Chloro-7-(2-(4-(8-fluoro-2-oxo-1,2-dihydroquinolin-3-yl)piperidin-1-yl)-2-oxoethyl)-9-neopentyl-6,7,9,10-tetrahydroazepino[3,4-e]indazol-8(3H)-one] | 10 to 100 | 10 to 100
19 | O=C(C[C@@H]1Cc2cc(Cl)c3[nH]ncc3c2CN(Cc2ccncc2)C1=O)N1CCC(N2Cc3ccccc3NC2=O)CC1 [Example 49, (S)-4-Chloro-7-(2-oxo-2-(4-(2-oxo-1,2-dihydroquinazolin-3(4H)-yl)piperidin-1-yl)ethyl)-9-(pyridin-4-ylmethyl)-6,7,9,10-tetrahydroazepino[3,4-e]indazol-8(3H)-one] | 0.1 to 10 | 0.1 to 10
20 | O=C(C[C@@H]1Cc2cc(Cl)c3[nH]ncc3c2CN(Cc2ccncc2)C1=O)N1CCC(N2Cc3cccc(F)c3NC2=O)CC1 [Example 50, (S)-4-Chloro-7-(2-(4-(8-fluoro-2-oxo-1,2-dihydroquinazolin-3(4H)-yl)piperidin-1-yl)-2-oxoethyl)-9-(pyridin-4-ylmethyl)-6,7,9,10-tetrahydroazepino[3,4-e]indazol-8(3H)-one] | 0.1 to 10 | 0.1 to 10
